Source: the supplement of paper PMC10307832

Columns and labels:
Experiment in all cases: relative viability (nuclei count vs DMSO), 5 days (fraction); higher = more cells survive
201T = system: 201T
How it was run: (§1)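 Lung cancer cell lines in 1536-well plates were dosed by pin tool the day after seeding, either with one drug alone or with a fixed anchor-drug dose plus five library-drug doses (not always all listed) in √10 steps. After 5 days, cells were fixed and their nuclei stained in one step (final 0.05% Triton X-100, 1% formaldehyde, 1 ug/ml Hoechst), then counted on 4× images. Relative viability is the nuclei count in treated wells divided by that in vehicle wells. Values are medians of duplicate plates.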

BEN = system: BEN
How it was run: as §1

COR-L 105 = system: COR-L 105
How it was run: as §1

EKVX = system: EKVX
How it was run: as §1

EPLC-272H = system: EPLC-272H
How it was run: as §1

H3255 = system: H3255
How it was run: as §1

HCC-44 = system: HCC-44
How it was run: as §1

HCC-827 = system: HCC-827
How it was run: as §1

LCLC-97TM1 = system: LCLC-97TM1
How it was run: as §1

LOU-NH91 = system: LOU-NH91
How it was run: as §1

LU99A = system: LU99A
How it was run: as §1

NCI-H1437 = system: NCI-H1437
How it was run: as §1

NCI-H1666 = system: NCI-H1666
How it was run: as §1

NCI-H1975 = system: NCI-H1975
How it was run: as §1

NCI-H2085 = system: NCI-H2085
How it was run: as §1

NCI-H2087 = system: NCI-H2087
How it was run: as §1

NCI-H2170 = system: NCI-H2170
How it was run: as §1

NCI-H2342 = system: NCI-H2342
How it was run: as §1

NCI-H647 = system: NCI-H647
How it was run: as §1

NCI-H650 = system: NCI-H650
How it was run: as §1

PC-3 [JPC-3] = system: PC-3 [JPC-3]
How it was run: as §1

SW 1573 = system: SW 1573
How it was run: as §1

Work on `O=c1cc(-c2cccc3c2Sc2ccccc2S3)oc(N2CCOCC2)c1` + CC(=O)c1c(C)c2cnc(Nc3ccc(N4CCNCC4)cn3)nc2n(C2CCCC2)c1=O [Palbociclib] (partner 0.5 µM) yielded a relative viability (201T; first compound 0.08 µM) of 0.348, a relative viability (201T; first compound 0.253 µM) of 0.362 and a relative viability (201T; first compound 0.8 µM) of 0.373. The relative viability (201T; first compound 2.53 µM) was 0.348, the relative viability (201T; first compound 8 µM) was 0.359 and the relative viability (BEN; first compound 0.08 µM) was 0.464. It also gave a relative viability (BEN; first compound 0.253 µM) of 0.447, a relative viability (BEN; first compound 0.8 µM) of 0.477 and a relative viability (BEN; first compound 2.53 µM) of 0.452. The relative viability (BEN; first compound 8 µM) was 0.499, the relative viability (COR-L 105; first compound 0.08 µM) was 0.349 and the relative viability (COR-L 105; first compound 0.253 µM) was 0.319. It also gave a relative viability (COR-L 105; first compound 0.8 µM) of 0.385, a relative viability (COR-L 105; first compound 2.53 µM) of 0.413 and a relative viability (COR-L 105; first compound 8 µM) of 0.416. The relative viability (EKVX; first compound 0.08 µM) was 0.582, the relative viability (EKVX; first compound 0.253 µM) was 0.657 and the relative viability (EKVX; first compound 0.8 µM) was 0.345. For the same compound, the relative viability (EKVX; first compound 2.53 µM) was 0.321, the relative viability (EKVX; first compound 8 µM) was 0.399 and the relative viability (EPLC-272H; first compound 0.08 µM) was 0.34. The relative viability (EPLC-272H; first compound 0.253 µM) was 0.318, the relative viability (EPLC-272H; first compound 0.8 µM) was 0.321 and the relative viability (EPLC-272H; first compound 2.53 µM) was 0.287. It also gave a relative viability (EPLC-272H; first compound 8 µM) of 0.285, a relative viability (H3255; first compound 0.08 µM) of 0.334 and a relative viability (H3255; first compound 0.253 µM) of 0.295. It also gave a relative viability (H3255; first compound 0.8 µM) of 0.305, a relative viability (H3255; first compound 2.53 µM) of 0.278 and a relative viability (H3255; first compound 8 µM) of 0.33. The relative viability (HCC-44; first compound 0.08 µM) was 0.965, the relative viability (HCC-44; first compound 0.253 µM) was 0.918 and the relative viability (HCC-44; first compound 0.8 µM) was 0.919. It also gave a relative viability (HCC-44; first compound 2.53 µM) of 0.958, a relative viability (HCC-44; first compound 8 µM) of 0.962 and a relative viability (HCC-827; first compound 0.08 µM) of 0.479. The relative viability (HCC-827; first compound 0.253 µM) was 0.493, the relative viability (HCC-827; first compound 0.8 µM) was 0.444 and the relative viability (HCC-827; first compound 2.53 µM) was 0.37. For the same compound, the relative viability (HCC-827; first compound 8 µM) was 0.442, the relative viability (LCLC-97TM1; first compound 0.08 µM) was 0.247 and the relative viability (LCLC-97TM1; first compound 0.253 µM) was 0.26. For the same compound, the relative viability (LCLC-97TM1; first compound 0.8 µM) was 0.245, the relative viability (LCLC-97TM1; first compound 2.53 µM) was 0.228 and the relative viability (LCLC-97TM1; first compound 8 µM) was 0.241. The relative viability (LOU-NH91; first compound 0.08 µM) was 0.528, the relative viability (LOU-NH91; first compound 0.253 µM) was 0.518 and the relative viability (LOU-NH91; first compound 0.8 µM) was 0.543. For the same compound, the relative viability (LOU-NH91; first compound 2.53 µM) was 0.535, the relative viability (LOU-NH91; first compound 8 µM) was 0.571 and the relative viability (LU99A; first compound 0.08 µM) was 0.413. The relative viability (LU99A; first compound 0.253 µM) was 0.417, the relative viability (LU99A; first compound 0.8 µM) was 0.491 and the relative viability (LU99A; first compound 2.53 µM) was 0.463. The relative viability (LU99A; first compound 8 µM) was 0.449, the relative viability (NCI-H1437; first compound 0.08 µM) was 0.302 and the relative viability (NCI-H1437; first compound 0.253 µM) was 0.344. It also gave a relative viability (NCI-H1437; first compound 0.8 µM) of 0.276, a relative viability (NCI-H1437; first compound 2.53 µM) of 0.25 and a relative viability (NCI-H1437; first compound 8 µM) of 0.285. The relative viability (NCI-H1666; first compound 0.08 µM) was 0.638, the relative viability (NCI-H1666; first compound 0.253 µM) was 0.673 and the relative viability (NCI-H1666; first compound 0.8 µM) was 0.679. The relative viability (NCI-H1666; first compound 2.53 µM) was 0.659, the relative viability (NCI-H1666; first compound 8 µM) was 0.601 and the relative viability (NCI-H1975; first compound 0.08 µM) was 0.623. The relative viability (NCI-H1975; first compound 0.253 µM) was 0.863, the relative viability (NCI-H1975; first compound 0.8 µM) was 0.465 and the relative viability (NCI-H1975; first compound 2.53 µM) was 0.564. It also gave a relative viability (NCI-H1975; first compound 8 µM) of 0.744, a relative viability (NCI-H2085; first compound 0.08 µM) of 0.431 and a relative viability (NCI-H2085; first compound 0.253 µM) of 0.508. It also gave a relative viability (NCI-H2085; first compound 0.8 µM) of 0.471, a relative viability (NCI-H2085; first compound 2.53 µM) of 0.467 and a relative viability (NCI-H2085; first compound 8 µM) of 0.412. It also gave a relative viability (NCI-H2087; first compound 0.08 µM) of 0.23, a relative viability (NCI-H2087; first compound 0.253 µM) of 0.234 and a relative viability (NCI-H2087; first compound 0.8 µM) of 0.203. It also gave a relative viability (NCI-H2087; first compound 2.53 µM) of 0.222, a relative viability (NCI-H2087; first compound 8 µM) of 0.201 and a relative viability (NCI-H2170; first compound 0.08 µM) of 0.45. It also gave a relative viability (NCI-H2170; first compound 0.253 µM) of 0.482, a relative viability (NCI-H2170; first compound 0.8 µM) of 0.414 and a relative viability (NCI-H2170; first compound 2.53 µM) of 0.354. It also gave a relative viability (NCI-H2170; first compound 8 µM) of 0.359, a relative viability (NCI-H2342; first compound 0.08 µM) of 0.52 and a relative viability (NCI-H2342; first compound 0.253 µM) of 0.548. The relative viability (NCI-H2342; first compound 0.8 µM) was 0.515, the relative viability (NCI-H2342; first compound 2.53 µM) was 0.522 and the relative viability (NCI-H2342; first compound 8 µM) was 0.575. For the same compound, the relative viability (NCI-H647; first compound 0.08 µM) was 0.438, the relative viability (NCI-H647; first compound 0.253 µM) was 0.487 and the relative viability (NCI-H647; first compound 0.8 µM) was 0.357. The relative viability (NCI-H647; first compound 2.53 µM) was 0.296, the relative viability (NCI-H647; first compound 8 µM) was 0.391 and the relative viability (NCI-H650; first compound 0.08 µM) was 0.346. The relative viability (NCI-H650; first compound 0.253 µM) was 0.323, the relative viability (NCI-H650; first compound 0.8 µM) was 0.372 and the relative viability (NCI-H650; first compound 2.53 µM) was 0.278. The relative viability (NCI-H650; first compound 8 µM) was 0.36, the relative viability (PC-3 [JPC-3]; first compound 0.08 µM) was 0.471 and the relative viability (PC-3 [JPC-3]; first compound 0.253 µM) was 0.54. It also gave a relative viability (PC-3 [JPC-3]; first compound 0.8 µM) of 0.559, a relative viability (PC-3 [JPC-3]; first compound 2.53 µM) of 0.482 and a relative viability (PC-3 [JPC-3]; first compound 8 µM) of 0.584. It also gave a relative viability (SW 1573; first compound 0.08 µM) of 0.426, a relative viability (SW 1573; first compound 0.253 µM) of 0.414 and a relative viability (SW 1573; first compound 0.8 µM) of 0.448. The relative viability (SW 1573; first compound 2.53 µM) was 0.377 and the relative viability (SW 1573; first compound 8 µM) was 0.362.
